Measurements taken from patent publication US20260146035A1, “FUSED BICYCLIC COMPOUNDS AND THEIR USE AS MER AND AXL INHIBITORS” (DONG-A ST CO., LTD., priority 2022, published 2026).

Experiments:
human MER (528-end) = target: T1, human MER (528-end) (Homo sapiens, UniProt Q12866); assay: HTRF kinase activity biochemical assay, MER; settings: 10 μM ATP, 30 minutes pre-incubation; read-out: HTRF MERTK IC50
T1 construct: human MER (528-end); purchased Camnabio, Japan
T1 sequence (Q12866 528-999 limits assumed): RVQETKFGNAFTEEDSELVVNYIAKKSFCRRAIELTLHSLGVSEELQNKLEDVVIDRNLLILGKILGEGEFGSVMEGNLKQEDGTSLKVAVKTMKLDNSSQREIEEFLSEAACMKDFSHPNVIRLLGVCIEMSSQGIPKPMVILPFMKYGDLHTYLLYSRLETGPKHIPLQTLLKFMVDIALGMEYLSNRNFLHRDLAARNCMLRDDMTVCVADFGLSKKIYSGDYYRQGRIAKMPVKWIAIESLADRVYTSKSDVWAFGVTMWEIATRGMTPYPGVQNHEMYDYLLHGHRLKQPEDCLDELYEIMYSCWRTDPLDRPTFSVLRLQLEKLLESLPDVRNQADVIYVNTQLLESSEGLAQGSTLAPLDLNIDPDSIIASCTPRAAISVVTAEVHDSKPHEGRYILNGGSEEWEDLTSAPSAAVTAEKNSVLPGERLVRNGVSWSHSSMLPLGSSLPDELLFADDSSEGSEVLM

human AXL (473-end) = target: T2, human AXL (473-end) (Homo sapiens, UniProt P30530); assay: HTRF kinase activity biochemical assay, AXL; settings: 10 μM ATP, 30 minutes pre-incubation
T2 construct: human AXL (473-end); purchased SignalChem, Canada
T2 sequence (P30530 473-894 limits assumed): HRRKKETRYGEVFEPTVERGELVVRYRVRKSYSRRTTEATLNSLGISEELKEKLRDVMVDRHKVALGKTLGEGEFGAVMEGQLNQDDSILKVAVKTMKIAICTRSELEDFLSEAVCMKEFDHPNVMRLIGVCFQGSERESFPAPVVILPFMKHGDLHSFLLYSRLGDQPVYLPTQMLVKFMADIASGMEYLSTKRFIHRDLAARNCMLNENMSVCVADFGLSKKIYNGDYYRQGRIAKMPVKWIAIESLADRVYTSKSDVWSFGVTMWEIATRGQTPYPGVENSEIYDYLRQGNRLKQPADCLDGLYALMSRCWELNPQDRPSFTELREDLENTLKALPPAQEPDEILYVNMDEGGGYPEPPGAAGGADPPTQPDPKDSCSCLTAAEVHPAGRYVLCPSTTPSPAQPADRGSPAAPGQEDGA

human TYRO3 (455-end) = target: T3, human TYRO3 (455-end) (Homo sapiens, UniProt Q06418); assay: HTRF kinase activity biochemical assay, TYRO3; settings: 10 μM ATP, 30 minutes pre-incubation; read-out: HTRF TYRO IC50
T3 construct: TYRO3 (455-end); purchased SignalChem, Canada
T3 sequence (Q06418 455-890 limits assumed): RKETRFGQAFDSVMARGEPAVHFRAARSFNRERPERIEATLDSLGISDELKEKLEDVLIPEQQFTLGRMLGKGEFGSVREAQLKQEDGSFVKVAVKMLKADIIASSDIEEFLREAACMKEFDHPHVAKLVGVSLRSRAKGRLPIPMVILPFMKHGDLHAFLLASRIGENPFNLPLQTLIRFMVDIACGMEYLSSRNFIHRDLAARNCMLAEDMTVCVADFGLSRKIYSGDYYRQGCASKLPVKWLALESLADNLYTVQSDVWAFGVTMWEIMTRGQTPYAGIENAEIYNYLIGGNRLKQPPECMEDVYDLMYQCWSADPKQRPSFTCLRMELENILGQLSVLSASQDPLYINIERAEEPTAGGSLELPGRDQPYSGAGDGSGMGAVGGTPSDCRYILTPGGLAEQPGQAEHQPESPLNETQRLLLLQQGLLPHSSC

| Compound | IC50 (human MER (528-end)) [nM] | IC50 (human AXL (473-end)) [nM] | IC50 (human TYRO3 (455-end)) [nM] |
| --- | --- | --- | --- |
| CC1(C)CC(N2CCN(CCO)CC2)c2ccc(-c3ccc(CO[C@H]4CCC[C@@H]4NC(=O)c4cc(-c5cccnc5F)cnc4N)cc3)cc21 (stereo partly drawn) [Example 119, 6-amino-2′-fluoro-N-{(1S,2S)-2-[(4-{1-[4-(2-hydroxyethyl)piperazin-1-yl]-3,3-dimethyl-2,3-dihydro-1H-inden-5-yl}phenyl)methoxy]cyclopentyl}[3,3′-bipyridine]-5-carboxamide] | < 10 | < 10 | 10 to 100 |
| Cn1cc(-c2cnc(N)c(C(=O)N[C@H]3CCC[C@@H]3OCc3ccc(-c4ccc5c(c4)OCCC5N4CCN(CCO)CC4)cc3)c2)cn1 (stereo partly drawn) [Example 121, 2-amino-N-{(1S,2S)-2-[(4-{4-[4-(2-hydroxyethyl)piperazin-1-yl]-3,4-dihydro-2H-1-benzopyran-7-yl}phenyl)methoxy]cyclopentyl}-5-(1-methyl-1H-pyrazol-4-yl)pyridine-3-carboxamide] | < 10 | < 10 | 10 to 100 |
| Cn1cc(-c2cnc(N)c(C(=O)N[C@H]3CCC[C@@H]3OCc3ccc(-c4ccc5c(c4)CCCC5N4CCNCC4)cc3)c2)cn1 (stereo partly drawn) [Example 122, 2-amino-5-(1-methyl-1H-pyrazol-4-yl)-N-[(1S,2S)-2-({4-[5-(piperazin-1-yl)-5,6,7,8-tetrahydronaphthalen-2-yl]phenyl}methoxy)cyclopentyl]pyridine-3-carboxamide] | < 10 | < 10 | 10 to 100 |
| Nc1ncc(-c2cncc(F)c2)cc1C(=O)N[C@H]1CCC[C@@H]1OCc1ccc(-c2ccc3c(c2)CCCC3N2CCN(CCO)CC2)cc1 (stereo partly drawn) [Example 123, 6-amino-5′-fluoro-N-{(1S,2S)-2-[(4-{5-[4-(2-hydroxyethyl)piperazin-1-yl]-5,6,7,8-tetrahydronaphthalen-2-yl}phenyl)methoxy]cyclopentyl}[3,3′-bipyridine]-5-carboxamide] | < 10 | < 10 | 10 to 100 |
| Nc1ncc(C(F)(F)F)cc1C(=O)N[C@H]1CCC[C@@H]1OCc1ccc(-c2ccc3c(c2)CCCC3N2CCN(CCO)CC2)cc1 (stereo partly drawn) [Example 124, 2-amino-N-{(1S,2S)-2-[(4-{5-[4-(2-hydroxyethyl)piperazin-1-yl]-5,6,7,8-tetrahydronaphthalen-2-yl}phenyl)methoxy]cyclopentyl}-5-(trifluoromethyl)pyridine-3-carboxamide] | < 10 | < 10 | 100 to 1000 |
| CN(CCC(O)CO)C1CCc2cc(-c3ccc(CO[C@H]4CCC[C@@H]4NC(=O)c4cc(-c5cnn(C)c5)cnc4N)cc3)ccc21 (stereo partly drawn) [Example 125, 2-amino-N-{(1S,2S)-2-[(4-{1-[(3,4-dihydroxybutyl)(methyl)amino]-2,3-dihydro-1H-inden-5-yl}phenyl)methoxy]cyclopentyl}-5-(1-methyl-1H-pyrazol-4-yl)pyridine-3-carboxamide] | 10 to 100 | 10 to 100 | > 1000 |
| CN(CCC(O)CO)C1CCc2cc(-c3ccc(CO[C@H]4CCC[C@@H]4NC(=O)c4cc(-c5ccc(F)nc5)cnc4N)cc3)ccc21 (stereo partly drawn) [Example 126, 6-amino-N-{(1S,2S)-2-[(4-{1-[(3,4-dihydroxybutyl)(methyl)amino]-2,3-dihydro-1H-inden-5-yl}phenyl)methoxy]cyclopentyl}-6′-fluoro[3,3′-bipyridine]-5-carboxamide] | 10 to 100 | 100 to 1000 | > 1000 |
| CN(CCC(O)CO)C1CCc2cc(-c3ccc(CO[C@H]4CCC[C@@H]4NC(=O)c4cc(-c5cccnc5F)cnc4N)cc3)ccc21 (stereo partly drawn) [Example 127, 6-amino-N-{(1S,2S)-2-[(4-{1-[(3,4-dihydroxybutyl)(methyl)amino]-2,3-dihydro-1H-inden-5-yl}phenyl)methoxy]cyclopentyl}-2′-fluoro[3,3′-bipyridine]-5-carboxamide] | 10 to 100 | 100 to 1000 | > 1000 |
| Cn1cc(-c2cnc(N)c(C(=O)N[C@H]3CCC[C@@H]3OCc3ccc(-c4ccc5c(c4)CC[C@@H]5N4CCN(C(CO)CO)CC4)cc3)c2)cn1 [Example 128, 2-amino-N-{(1S,2S)-2-[(4-{(1S)-1-[4-(1,3-dihydroxypropan-2-yl)piperazin-1-yl]-2,3-dihydro-1H-inden-5-yl}phenyl)methoxy]cyclopentyl}-5-(1-methyl-1H-pyrazol-4-yl)pyridine-3-carboxamide] | < 10 | < 10 | 100 to 1000 |
| Nc1ncc(-c2cccnc2F)cc1C(=O)N[C@H]1CCC[C@@H]1OCc1ccc(-c2ccc3c(c2)CC[C@@H]3N2CCN(C(CO)CO)CC2)cc1 [Example 129, 6-amino-N-{(1S,2S)-2-[(4-{(1S)-1-[4-(1,3-dihydroxypropan-2-yl)piperazin-1-yl]-2,3-dihydro-1H-inden-5-yl}phenyl)methoxy]cyclopentyl}-2′-fluoro[3,3′-bipyridine]-5-carboxamide] | < 10 | < 10 | > 1000 |
| CC1(C)CC(N2CCN(CCO)CC2)c2ccc(-c3ccc(CO[C@H]4CCC[C@@H]4NC(=O)c4cc(C(F)(F)F)cnc4N)cc3)cc21 (stereo partly drawn) [Example 130, 2-amino-N-{(1S,2S)-2-[(4-{1-[4-(2-hydroxyethyl)piperazin-1-yl]-3,3-dimethyl-2,3-dihydro-1H-inden-5-yl}phenyl)methoxy]cyclopentyl}-5-(trifluoromethyl)pyridine-3-carboxamide] | < 10 | < 10 | 100 to 1000 |

The next lines start with the values.

| IC50 (human MER (528-end)) [nM] | IC50 (human AXL (473-end)) [nM] | IC50 (human TYRO3 (455-end)) [nM] | Compound |
| --- | --- | --- | --- |
| < 10 | 10 to 100 | 100 to 1000 | Cn1cc(-c2cnc(N)c(C(=O)N[C@H]3CCC[C@@H]3OCc3ccc(-c4ccc5c(n4)C(C)(C)CN5C4CCN(CCO)CC4)cc3)c2)cn1 [Example 113, 2-amino-N-{(1S,2S)-2-[(4-{1-[1-(2-hydroxyethyl)piperidin-4-yl]-3,3-dimethyl-2,3-dihydro-1H-pyrrolo[3,2-b]pyridin-5-yl}phenyl)methoxy]cyclopentyl}-5-(1-methyl-1H-pyrazol-4-yl)pyridine-3-carboxamide] |
| < 10 | < 10 | 10 to 100 | Cn1cc(-c2cnc(N)c(C(=O)N[C@H]3CCC[C@@H]3OCc3ccc(-c4ccc5c(c4)C(C)(C)CCN5C4CCN(CCO)CC4)cc3)c2)cn1 [Example 114, 2-amino-N-{(1S,2S)-2-[(4-{1-[1-(2-hydroxyethyl)piperidin-4-yl]-4,4-dimethyl-1,2,3,4-tetrahydroquinolin-6-yl}phenyl)methoxy]cyclopentyl}-5-(1-methyl-1H-pyrazol-4-yl)pyridine-3-carboxamide] |
| < 10 | < 10 | 100 to 1000 | CN1CCN([C@H]2CCc3cc(-c4ccc(CO[C@H]5CCC[C@@H]5NC(=O)c5cc(-c6ccn(C)c(=O)c6)cnc5N)cc4)ccc32)CC1 [Example 115, 6-amino-1′-methyl-N-[(1S,2S)-2-({4-[(1S)-1-(4-methylpiperazin-1-yl)-2,3-dihydro-1H-inden-5-yl]phenyl}methoxy)cyclopentyl]-2′-oxo-1′,2′-dihydro[3,4′-bipyridine]-5-carboxamide] |
| < 10 | < 10 | 100 to 1000 | CN1CCN([C@H]2CCc3cc(-c4ccc(CO[C@H]5CCC[C@@H]5NC(=O)c5cc(-c6cccnc6F)cnc5N)cc4)ccc32)CC1 [Example 116, 6-amino-2′-fluoro-N-[(1S,2S)-2-({4-[(1S)-1-(4-methylpiperazin-1-yl)-2,3-dihydro-1H-inden-5-yl]phenyl}methoxy)cyclopentyl][3,3′-bipyridine]-5-carboxamide] |
| < 10 | 10 to 100 | > 1000 | Nc1ncc(-c2ccc(F)nc2)cc1C(=O)N[C@H]1CCC[C@@H]1OCc1ccc(-c2ccc3c(c2)CC[C@H]3N2CCN3C[C@H](O)C[C@H]3C2)cc1 [Example 118, 6-amino-6′-fluoro-N-{(1S,2S)-2-[(4-{(1R)-1-[(7R,8aS)-7-hydroxyhexahydropyrrolo[1,2-a]pyrazin-2 (1H)-yl]-2,3-dihydro-1H-inden-5-yl}phenyl)methoxy]cyclopentyl}[3,3′-bipyridine]-5-carboxamide] |
